In the assay the target is T1, human alpha2A-adrenergic receptor (Homo sapiens, UniProt P08913).
T1 construct: human HT29 cells (RB-HAL2A, NEN, Zaventem, Belgium), which endogenously express the alpha2A-adrenergic receptor; purchased NEN, Zaventem, Belgium RB-HAL2A; host or cells: human HT29 cells (endogenous expression), membrane preparation
T1 sequence (P08913 1-465): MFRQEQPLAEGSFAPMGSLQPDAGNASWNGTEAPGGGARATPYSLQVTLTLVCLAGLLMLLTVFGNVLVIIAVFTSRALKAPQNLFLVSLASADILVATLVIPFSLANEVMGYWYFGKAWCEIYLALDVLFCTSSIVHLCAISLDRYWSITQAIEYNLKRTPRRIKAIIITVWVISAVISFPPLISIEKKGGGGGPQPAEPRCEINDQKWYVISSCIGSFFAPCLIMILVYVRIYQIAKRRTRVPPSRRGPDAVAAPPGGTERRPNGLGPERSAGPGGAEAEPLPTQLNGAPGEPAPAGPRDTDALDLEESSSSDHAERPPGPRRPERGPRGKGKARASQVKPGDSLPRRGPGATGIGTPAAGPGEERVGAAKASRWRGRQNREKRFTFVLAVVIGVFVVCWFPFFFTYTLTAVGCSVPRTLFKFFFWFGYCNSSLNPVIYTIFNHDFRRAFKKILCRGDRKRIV
In words: Binding affinity to human alpha2A-adrenergic receptor ([3H]-MK-912 displacement, HT29 cell membrane preparation). To be noted: compound concentration 10 NM [sic] (method: 10 μmol/l); displacement of 0.5 nmol/l [3H]-MK-912; HT29 membranes; pH 7.4. The method, then: Method for Determining the Binding Affinity to Human Alpha2A-adrenergic Receptor
The affinity of the compounds according to the invention to the pain-relevant alpha2A-receptor was investigated as follows.
The receptor affinity of the compounds according to the invention to human alpha2A-adrenergic receptor was determined in a microtiter plate batch. For this purpose, the compounds to be tested were incubated in a concentration of 10 μmol/l with a receptor membrane preparation of human HT29 cells (RB-HAL2A, NEN, Zaventem, Belgium), which endogenously express the alpha2A-adrenergic receptor, at a protein concentration of 40 μg protein/250 μl incubation batch in the presence of 0.5 nmol/l of the radioactively marked ligands [3H]-MK-912 (NET-1059, NEN, Zaventem, Belgium) for 30 minutes, with exclusion of light, at ambient temperature. A 25 mmol/l sodium phosphate buffer at a pH of 7.4 was used as the buffer system. The unspecific bond was determined in the presence of 10 μmol/l phentolamine. After incubation, the microtiter plates were filtered on glass fiber microtiter filter plates (Whatman GF/B, Hassel, Munich) using a Brandel Cell Harvester (MPRI-96T type, Hassel, Munich) and after drying of the glass fiber filter plates and subsequent charging of the plates with 35 μl of a scintillator (Ultima Gold, Canberra-Packard, Freiburg) were measured in a microtiter plate counter (1450 Microbeta Trilux, PerkinElmer-Wallac, Freiburg) after a delay of at least 90 minutes. The glass fiber microtiter filter plates were each pretreated prior to filtration of the incubation plates for 30 minutes with 50 μl per indentation of a 25 mmol/l sodium phosphate buffer supplemented by 0.5% (v/v) polyethylene imine at a pH of 7.4. The percentage inhibition effect of the compounds was calculated as a displacement of the radioactive ligand from its specific bond to the human alpha2A-adrenergic receptor.
Determining the Binding Affinity to Human Alpha2A-adrenergic Receptor
The binding affinities to human alpha2A-adrenergic receptor were determined by the foregoing methods.

Each structure is given as a SMILES string.

One may read the inhibition as the relative decrease from the control value, in per cent. Read a low inhibition as a response near the control.

Compound `OC1(Cc2ccc(Cl)cc2Cl)C(CN2CCCCC2)CCCC1CN1CCCCC1` (stereo not drawn) [1-(2,4-dichlorobenzyl)-2,6-bis-piperidin-1-ylmethyl-cyclohexanol] gave an inhibition at 10 µM of 100%.
`Cc1ccc(C)c(CC2(O)C(CN3CCCCC3)CCCC2CN2CCCCC2)c1` (stereo not drawn) [1-(2,5-dimethyl-benzyl)-2,6-bis-piperidin-1-ylmethyl-cyclohexanol] gave an inhibition at 10 µM of 100%.
The figure for `OC1(Cc2c(F)cccc2Cl)C(CN2CCCCC2)CCCC1CN1CCCCC1` (stereo not drawn) [1-(2-chloro-6-fluorobenzyl)-2,6-bis-piperidin-1-ylmethyl-cyclohexanol] is 68%; for `OC1(Cc2ccccc2Cl)C(CN2CCCCC2)CCCC1CN1CCCCC1` (stereo not drawn) [1-(2-chlorobenzyl)-2,6-bis-piperidin-1-ylmethyl-cyclohexanol] it is 100%.
The same measure for `COc1ccccc1C1(O)C(CN2CCCCC2)CCCC1CN1CCCCC1` (stereo not drawn) [1-(2-methoxy-phenyl)-2,6-bis-piperidin-1-ylmethyl-cyclohexanol]: 30%; for `Cc1ccccc1CC1(O)C(CN2CCCCC2)CCCC1CN1CCCCC1` (stereo not drawn) [1-(2-methyl-benzyl)-2,6-bis-piperidin-1-ylmethyl-cyclohexanol]: 100%.
The same measure for `OC1(c2cc(Cl)cc(Cl)c2)C(CN2CCCCC2)CCCC1CN1CCCCC1` (stereo not drawn) [1-(3,5-dichlorophenyl)-2,6-bis-piperidin-1-ylmethyl-cyclohexanol]: 33%.
Compound `OC1(c2ccc(F)c(Cl)c2)C(CN2CCCCC2)CCCC1CN1CCCCC1` (stereo not drawn) [1-(3-chloro-4-fluorophenyl)-2,6-bis-piperidin-1-ylmethyl-cyclohexanol] yielded an inhibition at 10 µM of 38%.
The figure for `OC1(Cc2cccc(Cl)c2)C(CN2CCCCC2)CCCC1CN1CCCCC1` (stereo not drawn) [1-(3-chlorobenzyl)-2,6-bis-piperidin-1-ylmethyl-cyclohexanol] is 98%; for `OC1(c2cccc(Cl)c2)C(CN2CCCCC2)CCCC1CN1CCCCC1` (stereo not drawn) [1-(3-chlorophenyl)-2,6-bis-piperidin-1-ylmethyl-cyclohexanol] it is 51%; for `OC1(Cc2cccc(F)c2)C(CN2CCCCC2)CCCC1CN1CCCCC1` (stereo not drawn) [1-(3-fluorobenzyl)-2,6-bis-piperidin-1-ylmethyl-cyclohexanol] it is 59%.
The same measure for `OC1(c2cccc(F)c2)C(CN2CCCCC2)CCCC1CN1CCCCC1` (stereo not drawn) [1-(3-fluorophenyl)-2,6-bis-piperidin-1-ylmethyl-cyclohexanol]: 48%.
The figure for `COc1cccc(CC2(O)C(CN3CCCCC3)CCCC2CN2CCCCC2)c1` (stereo not drawn) [1-(3-methoxy-benzyl)-2,6-bis-piperidin-1-ylmethyl-cyclohexanol] is 80%; for `Cc1cccc(CC2(O)C(CN3CCCCC3)CCCC2CN2CCCCC2)c1` (stereo not drawn) [1-(3-methyl-benzyl)-2,6-bis-piperidin-1-ylmethyl-cyclohexanol] it is 100%; for `OC1(c2ccc(Cl)c(C(F)(F)F)c2)C(CN2CCCCC2)CCCC1CN1CCCCC1` (stereo not drawn) [1-(4-chloro-3-trifluoromethyl-phenyl)-2,6-bis-piperidin-1-ylmethyl-cyclohexanol] it is 26%.
Turning to `OC1(Cc2ccc(Cl)cc2)C(CN2CCCCC2)CCCC1CN1CCCCC1` (stereo not drawn) [1-(4-chlorobenzyl)-2,6-bis-piperidin-1-ylmethyl-cyclohexanol], the inhibition at 10 µM was 88%.
The figure for `OC1(Cc2ccc(F)cc2)C(CN2CCCCC2)CCCC1CN1CCCCC1` (stereo not drawn) [1-(4-fluorobenzyl)-2,6-bis-piperidin-1-ylmethyl-cyclohexanol] is 87%; for `OC1(c2cccc(C(F)(F)F)c2)C(CN2CCCCC2)CCCC1CN1CCCCC1` (stereo not drawn) [2,6-bis-piperidin-1-ylmethyl-1-(3-trifluoromethyl-phenyl)-cyclohexanol] it is 56%.

Source of the values: patent US7569585B2, “1, 5-diaminopentan-3-ol compounds and related treatment methods” (Gruenenthal GmbH, priority 2001, dated 2009).
